# Legend:
# [1] = target: T1, cGMP-dependent type II protein kinase (PRKG2) (Homo sapiens, UniProt Q13237); assay: KinaseProfiler Assay, AGC kinase panel; assay type: biochemical; conditions: HBT 10 µmol; normalized by positive inhibitors
# T1 construct: purchased Eurofins Discovery (KinaseProfiler Service)
# T1 sequence (Q13237 1-762): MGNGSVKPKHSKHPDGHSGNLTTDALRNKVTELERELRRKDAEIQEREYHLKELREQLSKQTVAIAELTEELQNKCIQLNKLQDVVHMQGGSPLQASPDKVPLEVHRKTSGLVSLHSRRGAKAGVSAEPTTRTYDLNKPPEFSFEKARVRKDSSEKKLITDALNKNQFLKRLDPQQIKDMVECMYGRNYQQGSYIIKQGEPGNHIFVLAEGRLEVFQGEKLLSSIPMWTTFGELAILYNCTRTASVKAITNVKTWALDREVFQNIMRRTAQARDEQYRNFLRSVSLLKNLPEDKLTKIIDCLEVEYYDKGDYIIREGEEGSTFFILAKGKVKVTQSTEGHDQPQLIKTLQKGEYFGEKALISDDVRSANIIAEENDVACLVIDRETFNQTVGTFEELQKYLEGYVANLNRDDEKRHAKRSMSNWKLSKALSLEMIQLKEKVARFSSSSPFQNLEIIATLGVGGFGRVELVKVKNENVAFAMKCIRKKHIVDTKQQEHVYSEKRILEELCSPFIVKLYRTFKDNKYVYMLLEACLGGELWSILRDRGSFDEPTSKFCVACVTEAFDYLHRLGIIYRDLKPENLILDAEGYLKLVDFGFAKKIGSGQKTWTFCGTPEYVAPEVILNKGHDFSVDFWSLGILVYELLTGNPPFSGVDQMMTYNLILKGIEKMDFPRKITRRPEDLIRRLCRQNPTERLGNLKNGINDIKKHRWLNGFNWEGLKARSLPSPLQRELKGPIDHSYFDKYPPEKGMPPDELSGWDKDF
# Excerpt: (§1) 20 structurally related flavonoids of HBT were collected, which differ in the number and position of —OH groups, and examined for their effects on SGK1 activity. Based on the docking prediction, the —OH group at the C‐4’ position of HBT was required for the interaction with the key SGK1 residue D177. Therefore, the 20 flavonoids were divided into two classes according to the presence or absence of an —OH group at C‐4’ (Figure 4B). At both tested concentrations, flavonoids with an —OH group at C‐4’ (class A) inhibited SGK1 more than those without an —OH group at C‐4’ (class B) (Figure 4C). The IC50 of each compound is listed in Figure 4D; and Figure S6 (Supporting Information). […] Conversely, the absence of an ‐OH group at C‐8 led to a greater than 10‐fold reduction in flavonoid SGK1 inhibitory activity, as shown by the performance of A1 or A4. […] The inhibitory activity of HBT (10 µmol) against 28 human AGC kinases was tested by KinaseProfiler Assay (Eurofins Discovery). The percentage of HBT's inhibitory activity against each kinase was normalized by the respective positive inhibitors of AGC kinases.
# (§2) The initial crystal structures of SGK1 (PDB entry: 3HDN, 3HDM, and 2R5T) were obtained from the Protein Data Bank (PDB). The prepared inhibitors were then docked by Glide with the extra precision (XP) scoring mode to estimate the binding affinity for each protein–ligand complex. The detailed process of docking has been described previously.^[ [46] ^] HEK293T cells were transfected with SGK1 mutant plasmids. After 24 h, cells were lysed and immunoprecipitated with anti‐FLAG antibody and beads. Immune complexes were washed with kinase buffer and incubated in kinase buffer with substrate peptide for 1 h at 30 ℃ followed by LC/MS measurement as described above. KINOMEscan Profiling Service and KinaseProfiler Service Assay were provided by Eurofins Discovery.
# [2] = target: T2, catalytic subunit C-beta of PKA (PKAcβ) (Homo sapiens, UniProt P22694); assay: KinaseProfiler Assay, AGC kinase panel; assay type: biochemical; conditions: HBT 10 µmol
# T2 construct: purchased Eurofins Discovery (KinaseProfiler Service)
# Excerpt: as §1, §2
smiles,measurement,setting,value
"O=c1c(O)c(-c2ccc(O)cc2)oc2c(O)c(O)cc(O)c12 [HBT, herbacetin]",inhibitory activity on PRKG2,[1],45%
same,inhibitory effect on PKAcβ,[2],high inhibitory effects

# From PMC8805583, “Discovery of Herbacetin as a Novel SGK1 Inhibitor to Alleviate Myocardial Hypertrophy” (Advanced Science, 2021)
